Test results reported in patent US20060275505A1, “Method and composition for increasing the alkalinity of the body” (priority 2005, published 2006).

System: acid reflux
Test: Example 13 case study, acid reflux
Format: in vivo, human
Details: patient history
Source text: A person had suffered from acid reflux for two years. The reflux was severe enough to wake them once or twice every night, and they slept in an inclined bed. […] The patient drank a small glass of water with Alka Vita each night.

Compound | relief of acid reflux by drugs tried before
NC(N)=Nc1nc(CSCCC(N)=NS(N)(=O)=O)cs1 [Pepcid AC] | no relief
COc1cc(N)c(Cl)cc1C(=O)NC1CCN(CCCOc2ccc(F)cc2)CC1OC (stereo not shown) [Propulsid] | no relief
COc1ccc2[nH]c([S+]([O-])Cc3ncc(C)c(OC)c3C)nc2c1 (stereo not shown) [Prilosec] | no relief
COc1ccc2[nH]c([S@@+]([O-])Cc3ncc(C)c(OC)c3C)nc2c1 [Nexium] | no relief
